Test results as given in patent EP3295938B1, “USE OF TRIETHYL ORTHOACETATE IN THE TREATMENT OF METAL OVERLOAD DISEASES” (ÜSKÜDAR ÜNIVERSITESI, priority 2016, dated 2018).

Columns and labels:
[1] = after intravenous infusion; cited from earlier work
[2] = Iron chelation activity (FeSO4/ferrozine, absorbance at 562 nm); type: biochemical; conditions: 100, 200 and 400 mM pure triethyl orthoacetate (Fig. 7)
Method: Negative controls and methanolicmicroalgae extracts (400 µl) were pipetted into 24 well plate, then 100 µl of 0.25mM FeSO4 solution (dissolved in methanol) was added. For the reaction initiation, 100 µl 5mM ferrozine dissolved in methanol was added. Solution was homogenized by pipetting and incubated for 10 minutes at room temperature. After incubation, it was analysed by using spectrophotometric measurement at 562nm wavelength. In vitro experiments with pure triethyl orthoacetate compound was also conducted with the concentrations of 100, 200 and 400 mM respectively. Same experimental protocol was used for pure triethyl orthoacetate as described in detail above for Spirulina platensis extract.

| Compound | vascular half-life [1] | in vitro iron chelating activity [2] |
| --- | --- | --- |
| CC(=O)N(O)CCCCCNC(=O)CCC(=O)N(O)CCCCCNC(=O)CCC(=O)N(O)CCCCCN [deferoxamine] | 5 to 10 min | – |
| CCOC(C)(OCC)OCC [triethyl orthoacetate, Triethyl orthoacetate] | – | > 70% |
